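Compound exposure: 48 hours, 5 concentrations, 96-well plates. Abbreviation: GI50, concentration required for 50% inhibition of growth.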 Activity calls are given as the source filed them. Cut-off read from the data, not from the text of the source: active = GI50 up to about 1.1 µM and inactive = higher.
Assays:
Assay in all cases: NCI-60 cell line screen, 48 h
[1] = test system: A498
[2] = test system: A549
[3] = test system: ACHN
[4] = test system: CAKI-1
[5] = test system: CCRF-CEM
[6] = test system: COLO 205
[7] = test system: DLD-1
[8] = test system: DMS-114
[9] = test system: DMS-273
[10] = test system: EKVX
[11] = test system: HCC 2998
[12] = test system: HCT-116
[13] = test system: HCT-15
[14] = test system: HL-60
[15] = test system: HOP-18
[16] = test system: HOP-62
[17] = test system: HOP-92
[18] = test system: HT-29
[19] = test system: IGROV-1
[20] = test system: K562
[21] = test system: KM-20L2
[22] = test system: KM12
[23] = test system: LOX IMVI
[24] = test system: LXFL 529
[25] = test system: M14
[26] = test system: M19-MEL
[27] = test system: MOLT-4
[28] = test system: Malme-3M
[29] = test system: NCI-H226
[30] = test system: NCI-H23
[31] = test system: NCI-H460
[32] = test system: NCI-H522
[33] = test system: OVCAR-3
[34] = test system: OVCAR-4
[35] = test system: OVCAR-5
[36] = test system: OVCAR-8
[37] = test system: RPMI-8226
[38] = test system: RXF 393
[39] = test system: SF-268
[40] = test system: SF-295
[41] = test system: SF-539
[42] = test system: SK-MEL-28
[43] = test system: SK-MEL-2
[44] = test system: SK-MEL-5
[45] = test system: SK-OV-3
[46] = test system: SN12C
[47] = test system: SNB-19
[48] = test system: SNB-75
[49] = test system: SNB-78
[50] = test system: SR
[51] = test system: SW-620
[52] = test system: TK-10
[53] = test system: U-251
[54] = test system: UACC-257
[55] = test system: UACC-62
[56] = test system: UO-31
[57] = test system: XF498
[58] = test system: RXF 631
[59] = test system: 786-0

Measured: GI50

C=C1C(=O)OC2/C=C(\C(=O)O)CC/C=C(\C)CC(OC(=O)/C=C(\C)CC)C12 (configuration not stated)
14.6 µM: [13]
inactive: [1] 17.9 µM | [2] 16 µM | [3] 17 µM | [4] 19.3 µM | [5] > 100 µM | [6] 17 µM | [7] 16.7 µM | [8] 15.4 µM | [9] 19 µM | [10] 24.7 µM | [11] 18.6 µM | [12] 12.9 µM | [14] 72.6 µM | [15] 21.7 µM | [16] 20.1 µM | [17] 20.9 µM | [18] 15.7 µM | [19] 19.4 µM | [20] > 100 µM | [21] 19.6 µM | [22] 14.4 µM | [23] 15.3 µM | [24] 16.9 µM | [25] 16.7 µM | [26] 15.6 µM | [27] > 100 µM | [28] 18.2 µM | [29] 17.9 µM | [30] 16.4 µM | [31] 16.1 µM | [32] 17.8 µM | [33] 16.3 µM | [34] 16.9 µM | [35] 13.5 µM | [36] 17.2 µM | [37] 3.45 µM | [38] 14 µM | [39] 14.9 µM | [40] 17.3 µM | [41] 15.7 µM | [42] 18.8 µM | [43] 14.4 µM | [44] 18.8 µM | [45] 20.3 µM | [46] 17 µM | [47] 18.9 µM | [48] 19.5 µM | [49] 23 µM | [50] > 100 µM | [51] 16.6 µM | [52] 34.6 µM | [53] 17 µM | [54] 18.2 µM | [55] 14.3 µM | [56] 19.9 µM | [57] 18.3 µM

c1ccc(-c2nc3sccn3n2)cc1
inactive: [1] > 100 µM | [2] > 100 µM | [3] > 100 µM | [5] > 100 µM | [8] > 100 µM | [9] > 100 µM | [10] > 100 µM | [12] > 100 µM | [14] > 100 µM | [16] > 100 µM | [17] 74.3 µM | [18] > 100 µM | [19] > 100 µM | [20] > 100 µM | [22] > 100 µM | [25] > 100 µM | [26] > 100 µM | [27] > 100 µM | [30] > 100 µM | [31] > 100 µM | [32] > 100 µM | [35] > 100 µM | [36] > 100 µM | [38] > 100 µM | [58] > 100 µM | [39] > 100 µM | [40] > 100 µM | [42] > 100 µM | [45] > 100 µM | [47] > 100 µM | [50] > 100 µM | [52] > 100 µM | [53] > 100 µM | [54] > 100 µM | [55] > 100 µM | [56] > 100 µM

CC(C)COC1Sc2ccccc2S1
inactive: [59] 22.3 µM | [2] 20.5 µM | [3] 15.7 µM | [4] 16.3 µM | [5] 27.7 µM | [6] 32.4 µM | [7] 16.4 µM | [8] 12.5 µM | [9] 19.8 µM | [10] 20 µM | [11] 28.7 µM | [15] 16.5 µM | [16] 21.4 µM | [17] 14.5 µM | [18] 13.1 µM | [19] 5.35 µM | [21] 17.5 µM | [23] 12.7 µM | [24] 20.7 µM | [25] 20.6 µM | [27] 5.05 µM | [28] 23.6 µM | [30] 22.3 µM | [31] 7.85 µM | [33] 19.6 µM | [34] 23.1 µM | [36] 29.1 µM | [37] 5.45 µM | [38] 18.2 µM | [39] 23.1 µM | [40] 16.4 µM | [42] 17.4 µM | [45] 28.1 µM | [46] 18.8 µM | [47] 18.1 µM | [48] 1.32 µM | [49] 27.9 µM | [51] 29.7 µM | [52] 21.5 µM | [53] 18.7 µM | [55] 4.91 µM | [56] 15.5 µM | [57] > 10 µM
22.4 µM: [13]

From ChEMBL document CHEMBL1201862, “PubChem BioAssay data set” (2004)
